Reference: article PMC2716488, “Functional Expression of a DNA-Topoisomerase IB from Cryptosporidium parvum” (Journal of Biomedicine and Biotechnology, 2009)

Target: T1, CpTopIB (Cryptosporidium parvum, UniProt Q5CY81)
T1 construct: gene cgd7_3350; expressed from YCpGAL in S. cerevisiae EKY3 (top1 deleted), purified on phosphocellulose and phenyl-sepharose; monomer; no tag mentioned
T1 sequence (Q5CY81 13-653): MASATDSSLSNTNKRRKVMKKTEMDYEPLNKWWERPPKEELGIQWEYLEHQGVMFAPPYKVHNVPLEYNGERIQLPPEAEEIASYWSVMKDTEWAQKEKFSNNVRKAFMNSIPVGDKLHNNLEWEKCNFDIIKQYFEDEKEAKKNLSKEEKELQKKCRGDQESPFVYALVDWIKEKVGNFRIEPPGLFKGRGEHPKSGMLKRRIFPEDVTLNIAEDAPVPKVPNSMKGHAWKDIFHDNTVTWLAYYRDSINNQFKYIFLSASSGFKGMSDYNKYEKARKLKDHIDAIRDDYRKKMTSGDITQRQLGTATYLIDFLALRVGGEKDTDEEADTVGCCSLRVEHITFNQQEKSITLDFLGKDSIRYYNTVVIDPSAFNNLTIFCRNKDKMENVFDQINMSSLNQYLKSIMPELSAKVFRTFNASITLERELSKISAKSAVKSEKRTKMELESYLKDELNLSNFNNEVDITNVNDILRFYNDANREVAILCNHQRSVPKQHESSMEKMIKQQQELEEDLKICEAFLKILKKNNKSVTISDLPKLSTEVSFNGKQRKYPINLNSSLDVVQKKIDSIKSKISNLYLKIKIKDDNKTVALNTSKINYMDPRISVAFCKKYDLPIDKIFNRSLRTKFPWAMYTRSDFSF
Test: DNA cleavage assay, nicked DNA on agarose gel
Type: biochemical
Settings: supercoiled phiX174 RF I DNA, pH 7.5, 50 mM KCl, 1% DMSO, 30 or 37°C; stabilises the enzyme-DNA cleavable complex

Row | SMILES | nicked-DNA increase at 10 and 100 μM
1 | CC[C@@]1(O)C(=O)OCc2c1cc1n(c2=O)Cc2cc3ccccc3nc2-1 [CPT, camptothecin] | There is a dose-dependent nicked-DNA increase for CPT and topotecan
2 | CC[C@@]1(O)C(=O)OCc2c1cc1n(c2=O)Cc2cc3c(CN(C)C)c(O)ccc3nc2-1 [topotecan] | There is a dose-dependent nicked-DNA increase for CPT and topotecan
